Some test systems named below: UACC-62 melanoma; SK-MEL-28 melanoma; SK-OV-3 ovarian; SK-MEL-2 melanoma; MCF7 breast; SNB-19 CNS; DU-145 prostate; TK-10 renal; SN12C renal; UACC-257 melanoma; HCT-116 colon; MALME-3M melanoma; SNB-75 CNS.
Holding throughout (assay): inhibition of tumour cell growth, NCI panel, 48 h

SMILES strings stand for the structures.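 How tested: cells in 96-well plates exposed to compound for 48 hours at five concentrations. TGI: concentration producing complete growth inhibition.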

For the molecule `NC(CCC(=O)c1ccccn1)C(=O)O` (centres undefined), the TGI in the test on UACC-62 melanoma, in the test on SK-MEL-28 melanoma, with SK-OV-3 ovarian, in the test with SK-MEL-2 melanoma, in the test with MCF7 breast and with SNB-19 CNS was greater than 100 µM throughout. In addition, the TGI in the test with DU-145 prostate, in the test with TK-10 renal, in the test with SN12C renal, with UACC-257 melanoma, in the test on HCT-116 colon and in the test on MALME-3M melanoma was greater than 100 µM in each case.
Take `Cc1ccc(S(=O)(=O)N/N=C2\C=CC3(CC2)C(=O)N(I)c2ccccc23)cc1` (centres undefined): the TGI in the test on UACC-62 melanoma, in the test on SK-MEL-28 melanoma, in the test on SK-OV-3 ovarian, with SK-MEL-2 melanoma, with SNB-75 CNS and in the test with SNB-19 CNS was greater than 100 µM in each case. Further, the TGI is greater than 100 µM with TK-10 renal; greater than 100 µM with SN12C renal; greater than 100 µM in the test on UACC-257 melanoma; greater than 100 µM in the test with HCT-116 colon; 6.82 µM in the test with MALME-3M melanoma.
Turning to `NC(Cc1ccccc1)C(=O)OCN1C(=O)C2C3C=CC(C2C1=O)C1C(=O)N(COC(=O)C(N)Cc2ccccc2)C(=O)C31` (centres undefined), the TGI was greater than 100 µM in the test with UACC-62 melanoma; greater than 100 µM with SK-MEL-28 melanoma; 52 µM in the test on SK-MEL-2 melanoma; 39.2 µM in the test with MCF7 breast; greater than 100 µM in the test with SNB-19 CNS; greater than 100 µM with DU-145 prostate. Besides, the TGI with TK-10 renal, with SN12C renal, with UACC-257 melanoma, in the test on HCT-116 colon and in the test with MALME-3M melanoma was greater than 100 µM each time.
With `C/C(=C\C(=O)Nc1ccc2n[nH]nc2c1)Nc1ccc2n[nH]nc2c1`, the TGI in the test with UACC-62 melanoma, in the test with SK-MEL-28 melanoma, in the test with SK-OV-3 ovarian, in the test on SNB-75 CNS, with SNB-19 CNS and in the test on TK-10 renal was greater than 100 µM throughout. The TGI with SN12C renal, in the test with UACC-257 melanoma, in the test on HCT-116 colon and in the test on MALME-3M melanoma was greater than 100 µM in each case.
Turning to `NCCCN(CCCCN(CCCN)CCCc1ccccc1)CCCc1ccccc1`, the TGI was determined as 3.28 µM in the test with UACC-62 melanoma; 2.98 µM in the test with SK-MEL-28 melanoma; 14.1 µM in the test on SK-OV-3 ovarian; 3.25 µM in the test with SK-MEL-2 melanoma; 5.04 µM in the test with SNB-75 CNS; 3.56 µM in the test on MCF7 breast. Besides, the TGI stood at 6.62 µM in the test on SNB-19 CNS; 23.8 µM with DU-145 prostate; 25.9 µM in the test with TK-10 renal; 16.9 µM in the test with SN12C renal; 3.45 µM in the test on UACC-257 melanoma; 3.02 µM with HCT-116 colon.
Take `COc1ccc(OC)c2c(C(C)=O)cccc12`: the TGI in the test on UACC-62 melanoma, in the test on SK-MEL-28 melanoma, in the test with SK-OV-3 ovarian, in the test with MCF7 breast, with SNB-19 CNS and with DU-145 prostate was greater than 100 µM in each case. The TGI with TK-10 renal, in the test on SN12C renal, in the test on UACC-257 melanoma, in the test on HCT-116 colon and with MALME-3M melanoma was greater than 100 µM in each case.
As for `CC1=NN(c2nc(N)nc(CO)n2)C(C)(C)C1`, the TGI with UACC-62 melanoma, in the test with SK-MEL-28 melanoma, in the test on SK-OV-3 ovarian, in the test with SK-MEL-2 melanoma, with SNB-75 CNS and with MCF7 breast was greater than 100 µM throughout. The TGI in the test on SNB-19 CNS, with DU-145 prostate, in the test on TK-10 renal, in the test on SN12C renal, in the test with UACC-257 melanoma and with HCT-116 colon was greater than 100 µM in each case.
For `Nc1nc(Cl)c(CO)c(NCC2(CO)CCC2)n1`, the TGI in the test with SK-MEL-28 melanoma, in the test with SNB-75 CNS, in the test with MCF7 breast, in the test with SNB-19 CNS, with DU-145 prostate and in the test with TK-10 renal was greater than 100 µM in each case. The TGI in the test on SN12C renal, with UACC-257 melanoma, in the test on HCT-116 colon and with MALME-3M melanoma was greater than 100 µM each time.
Consider `Cc1sc(/N=C/C2=C(O)CC(C)(C)CC2=O)nc1-c1ccccc1`, for which the TGI with UACC-62 melanoma, with SK-MEL-28 melanoma, with SK-OV-3 ovarian, with SK-MEL-2 melanoma, in the test with SNB-75 CNS and in the test on MCF7 breast was greater than 100 µM in each case. Moreover, the TGI in the test with SNB-19 CNS, in the test with DU-145 prostate, with TK-10 renal, in the test on SN12C renal, in the test on UACC-257 melanoma and in the test with HCT-116 colon was greater than 100 µM each time.
As for `C[C@]12CC[C@H]3[C@@H](CC=C4C[C@@H](O)CC[C@@]43C)[C@@H]1C/C(=C\c1cccnc1)[C@@H]2O`, the TGI is 39.8 µM in the test on UACC-62 melanoma; greater than 100 µM in the test with SK-MEL-28 melanoma; 34.2 µM with SK-OV-3 ovarian; greater than 100 µM in the test with SK-MEL-2 melanoma; 42.5 µM with MCF7 breast; 61.5 µM in the test with SNB-19 CNS. Besides, the TGI with DU-145 prostate was 67.4 µM; with TK-10 renal it was 66.8 µM; with SN12C renal it was 55.2 µM; with UACC-257 melanoma, greater than 100 µM; in the test on HCT-116 colon, greater than 100 µM; in the test on MALME-3M melanoma it was greater than 100 µM.
As to `Nc1nc(SCc2ccccc2Cl)c2ncn(C3OC(CO)C(O)C3O)c2n1` (centres undefined), the TGI was greater than 100 µM with UACC-62 melanoma; greater than 100 µM with SK-MEL-28 melanoma; greater than 100 µM in the test on SK-OV-3 ovarian; greater than 100 µM with SK-MEL-2 melanoma; 98.2 µM in the test with SNB-75 CNS; greater than 100 µM with SNB-19 CNS. The TGI in the test with TK-10 renal, in the test on SN12C renal, with HCT-116 colon and with MALME-3M melanoma was greater than 100 µM in each case.
Turning to `Nc1nc(Cl)c2ncn(CCCC(c3ccccc3)P(=O)(O)O)c2n1` (centres undefined), the TGI in the test with UACC-62 melanoma, with SK-MEL-28 melanoma, in the test with SK-OV-3 ovarian, in the test on SK-MEL-2 melanoma, in the test with SNB-75 CNS and in the test on SNB-19 CNS was greater than 100 µM in each case. Further, the TGI with TK-10 renal, with SN12C renal, in the test with UACC-257 melanoma, with HCT-116 colon and in the test with MALME-3M melanoma was greater than 100 µM each time.

The values are drawn from PubChem BioAssay (NCI).
